According to PubChem BioAssay AID248 (DTP/NCI, 2004):
Values joined by “and” are separate entries in the source; they are usually repeats but may differ in a detail not shown here. Equal entries are not always repeated. Inconclusive results and toxic doses are left out. Cut-off read from the data, not from the text of the source: active = T/C of 150% or more; inactive = T/C below 125%.

Test system: L1210 leukemia ip in BDF1 mice, survival T/C
Experiment: NCI In Vivo Anticancer Drug Screen. Data for tumor model L1210 Leukemia (intraperitoneal) in B6D2F1 (BDF1) mice
Conditions: endpoint: mean survival time, higher = longer survival
How it was run: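 Read-out is survival time, reported as the treated-group measurement over the vehicle-control measurement.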

[1] = dose: 100.0 mg/kg/injection, schedule: Q01DX001 (ip), vehicle: carboxymethylcellulose (CMC)
[2] = dose: 200.0 mg/kg/injection, schedule: Q01DX001 (ip), vehicle: carboxymethylcellulose (CMC)
[3] = dose: 400.0 mg/kg/injection, schedule: Q01DX001 (ip), vehicle: carboxymethylcellulose (CMC)
[4] = dose: 100.0 mg/kg/injection, schedule: Q01DX001 (ip), vehicle: other
[5] = dose: 100.0 mg/kg/injection, schedule: Q04DX003 (ip), vehicle: Klucel (hydroxypropylcellulose) (HPC)
[6] = dose: 200.0 mg/kg/injection, schedule: Q01DX001 (ip), vehicle: other
[7] = dose: 200.0 mg/kg/injection, schedule: Q04DX003 (ip), vehicle: Klucel (hydroxypropylcellulose) (HPC)
[8] = dose: 400.0 mg/kg/injection, schedule: Q01DX001 (ip), vehicle: other
[9] = dose: 400.0 mg/kg/injection, schedule: Q04DX003 (ip), vehicle: Klucel (hydroxypropylcellulose) (HPC)
[10] = dose: 400.0 mg/kg/injection, schedule: Q04DX002 (ip), vehicle: saline with Tween-80
[11] = dose: 50.0 mg/kg/injection, schedule: Q01DX001 (ip), vehicle: saline
[12] = dose: 100.0 mg/kg/injection, schedule: Q01DX001 (ip), vehicle: saline
[13] = dose: 200.0 mg/kg/injection, schedule: Q01DX001 (ip), vehicle: saline
[14] = dose: 400.0 mg/kg/injection, schedule: Q01DX001 (ip), vehicle: saline
[15] = dose: 100.0 mg/kg/injection, schedule: Q04DX003 (ip), vehicle: saline with Tween-80
[16] = dose: 200.0 mg/kg/injection, schedule: Q04DX003 (ip), vehicle: saline with Tween-80
[17] = dose: 100.0 mg/kg/injection, schedule: Q04DX002 (ip), vehicle: saline with Tween-80
[18] = dose: 200.0 mg/kg/injection, schedule: Q04DX002 (ip), vehicle: saline with Tween-80

Measured: T/C

Cc1cccc(C2CCCCC2OS(C)(=O)=O)c1 (configuration not stated)
inactive: [1] 101 % of control | [2] 108 % of control | [3] 95 % of control

Cc1ccccc1-n1c(C)nc2ccccc2c1=O
inactive: dose: 75.0 mg/kg/injection, schedule: Q01DX001 (ip), vehicle: saline 102 % of control | [4] 94 % of control | dose: 100.0 mg/kg/injection, schedule: Q01DX009 (ip), vehicle: Klucel (hydroxypropylcellulose) (HPC) 97 % of control | [5] 101 % of control | dose: 150.0 mg/kg/injection, schedule: Q01DX001 (ip), vehicle: saline 106 % of control | [6] 100 % of control | dose: 200.0 mg/kg/injection, schedule: Q01DX009 (ip), vehicle: Klucel (hydroxypropylcellulose) (HPC) 105 % of control | [7] 105 % of control | dose: 300.0 mg/kg/injection, schedule: Q01DX001 (ip), vehicle: saline 107 % of control | [8] 96 % of control | [9] 111 % of control

NNc1c(F)c(F)c(Br)c(F)c1F
inactive: dose: 25.6 mg/kg/injection, schedule: Q04DX002 (ip), vehicle: saline with Tween-80 106 % of control | dose: 64.0 mg/kg/injection, schedule: Q04DX002 (ip), vehicle: saline with Tween-80 95 % of control | dose: 160.0 mg/kg/injection, schedule: Q04DX002 (ip), vehicle: saline with Tween-80 106 % of control | [10] 95 % of control

Cn1cccc1/C=N/NC(N)=O
inactive: dose: 100.0 mg/kg/injection, schedule: Q04DX002 (ip), vehicle: Klucel (hydroxypropylcellulose) (HPC) 104 % of control | dose: 200.0 mg/kg/injection, schedule: Q04DX002 (ip), vehicle: Klucel (hydroxypropylcellulose) (HPC) 104 % of control | dose: 400.0 mg/kg/injection, schedule: Q04DX002 (ip), vehicle: Klucel (hydroxypropylcellulose) (HPC) 98 % of control

O=CNNCc1c[nH]c(=O)[nH]c1=O
inactive: [11] 96 % of control | [12] 96 % of control | [13] 96 % of control | [14] 98 % of control

COc1ccc(-n2c(=O)c(N=Nc3ccccc3C)c(O)n(-c3ccccc3OC)c2=S)cc1
inactive: dose: 75.0 mg/kg/injection, schedule: Q01DX001 (ip), vehicle: Klucel (hydroxypropylcellulose) (HPC) 97 % of control | dose: 150.0 mg/kg/injection, schedule: Q01DX001 (ip), vehicle: Klucel (hydroxypropylcellulose) (HPC) 92 % of control

CCC(=O)NC1(C(=O)O)CCCc2ccccc21 (configuration not stated)
inactive: [5] 110 % of control | [7] 96 % of control

CN(CCN(C)CP(c1ccccc1)c1ccccc1)CP(c1ccccc1)c1ccccc1
inactive: dose: 100.0 mg/kg/injection, schedule: Q04DX002 (sc), vehicle: olive oil, sesame oil, peanut oil 96 % of control | dose: 200.0 mg/kg/injection, schedule: Q04DX002 (sc), vehicle: olive oil, sesame oil, peanut oil 104 % of control | dose: 400.0 mg/kg/injection, schedule: Q04DX002 (sc), vehicle: olive oil, sesame oil, peanut oil 110 % of control

Cn1nc(C(=O)O)c(=O)[nH]c1=S
inactive: dose: 100.0 mg/kg/injection, schedule: Q01DX Z (ip), vehicle: methylcellulose (MC) 97 % of control | dose: 200.0 mg/kg/injection, schedule: Q01DX Z (ip), vehicle: methylcellulose (MC) 92 % of control

CCOP(=O)(OCC)C1c2cc(Cl)ccc2-c2c(Cl)cc(Cl)cc21 (configuration not stated)
inactive: dose: 15.0 mg/kg/injection, schedule: Q01DX001 (ip), vehicle: saline 103 % of control | dose: 30.0 mg/kg/injection, schedule: Q01DX001 (ip), vehicle: saline 98 % of control | dose: 60.0 mg/kg/injection, schedule: Q01DX001 (ip), vehicle: saline 103 % of control

CCOC(=O)c1c[nH]c2c(Cl)cccc2c1=O
inactive: [11] 97 % of control | [12] 100 % of control | [13] 94 % of control | [14] 94 % of control

Cc1ccc(C2(C#N)CCCCC2)cc1
inactive: dose: 100.0 mg/kg/injection, schedule: Q01DX009 (ip), vehicle: saline with Tween-80 96 % of control | [15] 108 % of control | dose: 200.0 mg/kg/injection, schedule: Q01DX009 (ip), vehicle: saline with Tween-80 110 % of control | [16] 98 % of control | dose: 400.0 mg/kg/injection, schedule: Q01DX009 (ip), vehicle: saline with Tween-80 110 % of control | dose: 400.0 mg/kg/injection, schedule: Q04DX003 (ip), vehicle: saline with Tween-80 101 % of control

CCCCC(=O)NC(O)C(Cl)(Cl)C(C)Cl (configuration not stated)
inactive: dose: 50.0 mg/kg/injection, schedule: Q01DX001 (ip), vehicle: other 112 % of control | [4] 91 % of control | [6] 101 % of control | [8] 101 % of control

CCOC(=O)CCc1c(C(=O)OCC)[nH]c(C)c1C(=O)OC(C)(C)C
inactive: dose: 100.0 mg/kg/injection, schedule: Q01DX001 (ip), vehicle: Klucel (hydroxypropylcellulose) (HPC) 105 % of control | dose: 200.0 mg/kg/injection, schedule: Q01DX001 (ip), vehicle: Klucel (hydroxypropylcellulose) (HPC) 124 % of control | dose: 400.0 mg/kg/injection, schedule: Q01DX001 (ip), vehicle: Klucel (hydroxypropylcellulose) (HPC) 95 % of control

CC(C)(C)NC(=O)Oc1ccccc1C(=O)Nc1ccccc1
inactive: dose: 50.0 mg/kg/injection, schedule: Q01DX009 (ip), vehicle: saline with Tween-80 97 % of control and 103 % of control | [17] 101 % of control and 103 % of control | [18] 95 % of control and 98 % of control | [10] 92 % of control

Cc1ccc([N+](=O)[O-])cc1NC(=O)Oc1ccc(Cl)cc1Cl
inactive: [15] 104 % of control | [16] 100 % of control

CC(C1CCC2CCC3CCCC1C32)C1CCC2CCC3CCCC1C32 (configuration not stated)
inactive: [4] 99 % of control | [6] 103 % of control | [8] 101 % of control

CCCC(C(CC)CNC(=O)Nc1cccc2ccccc12)N(C)C(=O)Nc1cccc2ccccc12 (configuration not stated)
inactive: dose: 50.0 mg/kg/injection, schedule: Q01DX001 (ip), vehicle: carboxymethylcellulose (CMC) 109 % of control | [1] 102 % of control | [2] 103 % of control | [3] 96 % of control

CC(C)(C)C(O)C1CCCS1(=O)=O (configuration not stated)
inactive: dose: 50.0 mg/kg/injection, schedule: Q01DX001 (ip), vehicle: Klucel (hydroxypropylcellulose) (HPC) 96 % of control

O=[N+]([O-])c1ccc(NCc2ccccc2)c2nonc12
inactive: dose: 50.0 mg/kg/injection, schedule: Q01DX009 (ip), vehicle: saline 113 % of control | dose: 100.0 mg/kg/injection, schedule: Q01DX009 (ip), vehicle: saline 98 % of control | dose: 200.0 mg/kg/injection, schedule: Q01DX009 (ip), vehicle: saline 113 % of control

CC(C)(C)CC(O)Cc1ccccc1 (configuration not stated)
inactive: [17] 93 % of control | [18] 93 % of control

Nc1ccc2ccccc2c1-c1c(N)ccc2ccccc12
inactive: dose: 75.0 mg/kg/injection, schedule: Q04DX002 (ip), vehicle: saline with Tween-80 109 % of control | [5] 97 % of control | [7] 103 % of control | dose: 300.0 mg/kg/injection, schedule: Q04DX002 (ip), vehicle: saline with Tween-80 94 % of control | [9] 88 % of control

O=C(O)c1ccc(N=Cc2ccc([N+](=O)[O-])s2)cc1
inactive: dose: 25.0 mg/kg/injection, schedule: Q04DX003 (ip), vehicle: saline with Tween-80 94 % of control | dose: 50.0 mg/kg/injection, schedule: Q04DX003 (ip), vehicle: saline with Tween-80 100 % of control | [5] 103 % of control | [15] 102 % of control
